We go through one substance from PMC8248988, “A signal capture and proofreading mechanism for the KDEL-receptor explains selectivity and dynamic range in ER retrieval” (eLife, 2021).

This assay relates to HeLa S3 cells. As to the kind of experiment: ER secretion assay, xDEL ligand secretion (Western blot for mScarlet). The class given is cell-based, human. The text has this: Figure 1. ER retrieval signal abundance and affinity are not correlated. (a) Sequence logos for ER resident proteins with C-terminal KDEL retrieval signals and variants thereof calculated using frequency or protein abundance ([Itzhak et al., 2017]; [Itzhak et al., 2016]). (b) Combined cellular concentrations of ER resident proteins with canonical KDEL, RDEL, and HDEL retrieval sequences in HeLa cells and mouse brain. (c) Competition binding assays for [^3H]-TAEHDEL and unlabelled TAEKDEL, TAERDEL, and TAEHDEL to the KDEL receptor. IC50 values for the competing peptides were used to calculate the apparent KDwith the Cheng-Prusoff equation ([Cheng and Prusoff, 1973]). (d) Endogenous KDEL receptor redistribution was measured in COS-7 cells in the absence (-ligand) or presence of K/R/H/A/DDEL (mScarlet-xDEL^sec). TGN46 was used as a Golgi marker. Scale bar is 10 µm. (e) The mean difference for K/R/H/A/DDEL comparisons against the shared no ligand control are shown as Cummings estimation plots. The individual data points for the fraction of KDEL receptor fluorescence in the Golgi are plotted on the upper axes with sample sizes and p values. Figure 1—source data 1. Source data for the ligand-induced KDELR receptor retrieval assays in Figure 1e. Figure 1—figure supplement 1. Abundance of ER resident proteins and chaperones in human cells and mouse brain. (a) The mean concentration of ER resident chaperones with the indicated ER retrieval sequence variant is plotted in the bar graph ([Itzhak et al., 2017]; [Itzhak et al., 2016]). (b) Combined cellular concentrations of ER resident proteins with canonical KDEL, RDEL, and HDEL retrieval sequences in HeLa cells and mouse brain. (c) The mean concentration of KDELR1, KDELR2, and KDELR3 in HeLa cells and mouse brain is plotted in the bar graph ([Itzhak et al., 2017]; [Itzhak et al., 2016]). (d) Cells and media collected from HeLa S3 cells expressing the xDEL variants (mScarlet-xDEL^sec) indicated in the figure were Western blotted for resident ER chaperones and KDELR. (e) A bar graph of xDEL secretion showing mean ± SEM (n = 3). (f). Endogenous ER chaperone secretion was measured by western blotting after challenge with different retrieval signals, and plotted as a bar graph showing mean ± SEM (n = 3). Figure 1—figure supplement 1—source data 1. Source data for analysis of ER protein levels in Figure 1—figure supplement 1a and c. Figure 1—figure supplement 1—source data 2. […] (a) Distribution of human KDELR1 and (b) KDELR2 was measured in COS-7 cells in the absence (-ligand) or presence of K/R/H/A/DDEL retrieval signals (K/R/H/A/DDEL^sec). […] The fraction of KDEL receptor localised to the Golgi was measured before (no ligand) and after challenge with different retrieval signals as indicated. […]
Background: In western blotting, separated proteins are transferred to a membrane and probed.

On to “ADEL [pcDNA3.1 hGHss-mScarlet-H. sapiens BiP639-654K651A (ADEL^SEC), secreted mScarlet fusion with human BiP C-terminus, ADEL signal]”, for which, under “HeLa S3 cells”, the “retention or secretion of the xDEL ligand (in words)” value is “mostly secreted”. Also, the “xDEL secretion (mScarlet)” value is, setting by setting: (mean, HeLa S3, 24 hr, cells and media Western blot densitometry) 51.6; (replicate 1) 33.9; (replicate 2) 69.2.
